Where two headings read alike, the source gives them in different places. Some results are limits rather than exact numbers.

Series [1] in a line: Solubility in water and salt solutions. It is filed as physicochemical.
Series [2] can be described thus: Long-term cycling of 0.1 M 2,6-N-TSAQ/ferrocyanide flow cell. On the procedure:
Flow battery experiments were performed with cell and hardware from Fuel Cell Tech. (Albuquerque, NM). Pyrosealed POCO graphite flow plates with serpentine flow designs were used for both electrodes. Each electrode comprised a single 5 cm^2 geometric surface area sheet of AvCarb carbon electrode. For 2,6-N-TSAQ/ferrocyanide full cell tests, a Nafion™ 212 membrane was used to serve as the ion-selective membrane. The Nafion membrane was soaked in the supporting electrolyte (sodium hydroxide or sodium chloride) for at least 24 hours before use. Viton sheets were used to cover the outer portion space between the electrodes. Torque used for cell assembly was 60 lb-in (6.78 Nm) on each of eight 1/4-28 bolts. The electrolytes were fed into the cell through fluorinated ethylene propylene (FEP) tubing at a rate of 60 mL/min, controlled by Cole-Parmer 6 Masterflex L/S peristaltic pumps. The cell was run inside a glove box (1 ppm O2). Cell polarization measurements and charge-discharge cycling were conducted using a Biologic BCS-815 battery cycler. […] The polarization curves were obtained by charging to a desired state of charge first and then polarizing via linear sweep voltammetry at a rate of 100 mV s^−1.
Long-term cycling testing of 0.1 M 2,6-N-TSAQ/ferrocyanide was performed with the same cell. The cell was cycled at 40 mA cm^2 with potential holds at 1.4 V for charging and 0.6 V for discharging until the current density dropped to 2 mA cm^−2. The initial discharge capacity was 4.764 Ah L^−1, corresponding to a capacity utilization of 88.9% of the theoretical value. However, the OCV at different SOC values in FIG. 8 (a) and the typical voltage profile in FIG. 9 (c) indicates it accesses the complete capacity of 2,6-N-TSAQ under such conditions. The differences between the actual capacity and the theoretical value could come from non-redox active impurities such as water or salts in the sample. […] The average coulombic efficiency was determined to be above 99.9%. […]

Series [3] can be described thus: Storage in 1 M NaCl at 65° C. for 8 days, 1H NMR. It is filed as physicochemical. The source says: For comparison, the long-term cycling of the 0.1 M 2,6-N-TSAQ/ferrocyanide cell was operated at neutral condition (1 M sodium chloride) but, otherwise, the same conditions. The initial volumetric capacity was 4.774 Ah L^−1, which is similar to that at pH 14. After 2.84 days cycling, the discharge capacity dropped to 4.412 Ah/L, corresponding to a capacity fade rate of 2.6%/day, which is around 2 orders magnitude higher than that at pH 14. And the coulombic efficiency is around 99.8% over the whole cycling process, which is slightly lower than that at pH 14. […] To investigate the origin of instability of 2,6-N-TSAQ at neutral condition, both oxidized and reduced forms of 2,6-N-TSAQ were stored in 1 M NaCl at 65° C. for 8 days.

Series [4] can be described thus: Cyclic voltammetry (three-electrode system). It is filed as physicochemical. How it is done:
A glassy carbon (BASi, 3 mm diameter) working electrode, an Ag/AgCl reference electrode (BASi, 3 M NaCl solution), and a graphite counter electrode were used in the three-electrode system for all CV tests. The scan rates for CV tests were 10, 20, 50, 100, and 200 mV s^−1. The diffusion coefficient D was calculated based on the Randles-Sevcik equation: Ip=269000×n^1.5 AD^0.5v^0.5C, where Ip is the peak current in amps, n is the number of electrons involved (n=2 for 2,6-N-TSAQ) in the redox reaction, A is the active surface area (0.0707 cm^2), D is the diffusion coefficient in cm^2/s, v is the scan rate in V/s, and C is the concentration of redox species in mol/cm^3.
The reduction potential of 2,6-N-TSAQ is-0.62 V vs. SHE in 1M NaCl, which is 120 mV and 170 mV lower than that of 2,6-O-DPSAQ and 2,6-DPSAQ in 1M NaCl, respectively. The low redox potential of 2,6-N-TSAQ is attributed to the strong electron donating effect of N-alkyl group. It contributes to form a high working voltage and high power density flow battery. […] The ammonium cation, however, sacrifices the redox potential of 2,6-N-TSAQ as the local pH is always lower than the pKa2 of 9,10-dihydroxyanthracene, which is also observed in the reported 9,10-anthraquinone-2,7-disulfonic diammonium salt.

Where [5] appears, read: water, read-out: water solubility.

Regarding `O=C1c2ccc(OCCCS(=O)(=O)[O-])cc2C(=O)c2ccc(OCCCS(=O)(=O)[O-])cc21.[Na+].[Na+]` [2,6-O-DPSAQ, sodium 3,3′-((9,10-anthraquinone-2,6-diyl)bis(oxy))bis(propane-1-sulfonate)], the solubility is 10 mM in series [1] (1 M lithium chloride, saline or isotonic, 1 M lithium chloride, read-out: solubility); < 5 mM in series [1] (1 M sodium chloride, saline or isotonic, 1 M sodium chloride, read-out: solubility); 10 mM in series [1] (deionized water, water, deionized water, read-out: solubility).

Molecule `O=C1c2ccc(N(CCCS(=O)(=O)O)CCCS(=O)(=O)O)cc2C(=O)c2ccc(N(CCCS(=O)(=O)O)CCCS(=O)(=O)O)cc21` [2,6-N-TSAQ, sodium 3,3′,3″,3′″-((9,10-anthraquinone-2,6-diyl)bis(azanetriyl))tetrakis(propane-1-sulfonate)] yielded a capacity fade rate in series [2] (neutral condition (1 M sodium chloride), 0.1 M, 2.84 days cycling) of 2.6 %/day. Further, the “cycle-denominated capacity fade rate” value in series [2] (pH 14, 0.1 M, full SOC range cycling) is reported as 0.00024 %/cycle. In addition, the “temporal capacity fade rate” value in series [2] (pH 14, 0.1 M, full SOC range cycling, 9 days) came to 0.025 %/day. Moreover, the “decomposition by 1H NMR, oxidized state” value in series [3] (oxidized form) is listed as “no apparent decomposition”. The “decomposition by 1H NMR, reduced state” value in series [3] (reduced form) is “a large quantity of decomposition”. The solubility in series [1] (water, with ammonium ion exchange, read-out: solubility) amounted to 650 mM; in series [1] (setting [5]), 450 mM. The reduction potential in series [4] (1M NaCl (unbuffered)) is reported as −0.62 V vs. SHE. Moreover, the “reduction potential lower than that of 2,6-DPSAQ” value in series [4] (difference versus 2,6-DPSAQ) was determined as 170 mV. For the same molecule, the “reduction potential lower than that of 2,6-O-DPSAQ” value in series [4] (difference versus 2,6-O-DPSAQ) is on record as 120 mV.

`O=C1c2ccc(CCCS(=O)(=O)[O-])cc2C(=O)c2ccc(CCCS(=O)(=O)[O-])cc21.[Na+].[Na+]` [2,6-DPSAQ, sodium 3,3′-(9,10-anthraquinone-2,6-diyl)bis(propane-1-sulfonate)]: the solubility in series [1] (setting [5]) worked out at 300 mM.

Source of the values: patent US20250118786A1, “LONG-LIVED REDOX-ACTIVE MOLECULES WITH LOW REDOX POTENTIAL” (President and Fellows of Harvard College, priority 2021, published 2025).
